Results reported in publication doi:10.1101/2021.10.07.463234v2 (biorxiv, 2021).
Where a name gives a salt, the structure may show the parent alone.

Target: SARS-CoV-2 Mac1 (Severe acute respiratory syndrome coronavirus 2, UniProt P0DTD1)
Assay: biochemical
Conditions: for inhibition at 100 µM: read-out: %inhibition; for %inhibition: 100 µM, inhibitor

SMILES	inhibition at 100 µM [%]	%inhibition [%]
COCC(=O)Nc1c(I)c(C(=O)NCC(O)CO)c(I)c(C(=O)N(C)CC(O)CO)c1I (mixture of isomers) [Iopromide]	0	
CCC(C)n1ncn(-c2ccc(N3CCN(c4ccc(OC[C@H]5CO[C@](Cn6cncn6)(c6ccc(Cl)cc6Cl)O5)cc4)CC3)cc2)c1=O (mixture of isomers) [Itraconazole]	1.14	
OC[C@H]1O[C@@H](O[C@@H]2[C@@H](CO)OC(O)(CO)[C@H]2O)[C@H](O)[C@@H](O)[C@H]1O (mixture of isomers) [Lactulose]	5.37	
CCCCC(C)(O)C/C=C/[C@H]1[C@H](O)CC(=O)[C@@H]1CCCCCCC(=O)OC (mixture of isomers) [Misoprostol]	0	
CC(C)(C)NCC(O)COc1cccc2c1C[C@H](O)[C@H](O)C2 (mixture of isomers) [Nadolol]	21.5	
NCC(O)c1ccc(O)cc1 (racemic) [(+,-)-Octopamine HCl]	0	
CN1C[C@@H]2c3ccccc3Oc3ccc(Cl)cc3[C@H]2C1 (racemic) [Asenapine maleate]	0	
COC(=O)C1=C(C)NC(C)=C(C(=O)O[C@@H]2CCCN(Cc3ccccc3)C2)[C@@H]1c1cccc([N+](=O)[O-])c1 (racemic) [Benidipine HCl]	4.77	
C[N+](C)(C)CC(O)CC(=O)[O-] (racemic) [DL-Carnitine HCl]	0	
NC(=O)CCC(N)C(=O)O (racemic) [DL-Glutamine]	0	
CC(C)(CO)C(O)C(=O)NCCCO (racemic) [DL-Panthenol]	0	
CC(C)n1c(/C=C/[C@@H](O)C[C@@H](O)CC(=O)O)c(-c2ccc(F)cc2)c2ccccc21 (racemic) [Fluvastatin Sodium]	30	
COc1ccc(C[C@@H](C)NC[C@H](O)c2ccc(O)c(NC=O)c2)cc1 (racemic) [Formoterol Hemifumarate]		0
CC(=O)N1CCN(c2ccc(OC[C@@H]3CO[C@@](Cn4ccnc4)(c4ccc(Cl)cc4Cl)O3)cc2)CC1 (racemic) [Ketoconazole]	19.1	
CCN(CC)C(=O)[C@]1(c2ccccc2)C[C@@H]1CN (racemic) [Milnacipran HCl]	0	
CCOc1ccccc1O[C@H](c1ccccc1)[C@H]1CNCCO1 (racemic) [Reboxetine mesylate]	0	
C[C@@H](NCCc1ccc(O)cc1)[C@@H](O)c1ccc(O)cc1 (racemic) [Ritodrine HCl]	33.2	
CC(C)N1CCN(c2ccc(OC[C@H]3CO[C@](Cn4cncn4)(c4ccc(Cl)cc4Cl)O3)cc2)CC1 (racemic) [Terconazole]	4.88	
O=C(O)CCCC[C@@H]1CCSS1 (racemic) [Thioctic acid]	22.2	

SMILES	inhibition at 100 µM [%]	%inhibition [%]
Cc1ccc(S(=O)(=O)NC(=O)NN2CC3CCC[C@@H]3C2)cc1 (stereo in doubt) [Gliclazide]	9.52	
CC(=C(CCOC(=O)C(C)C)SSC(CCOC(=O)C(C)C)=C(C)N(C=O)Cc1cnc(C)nc1N)N(C=O)Cc1cnc(C)nc1N (stereo in doubt) [Sulbutiamine]	12.8	
COc1ccc(C(=O)c2ccccc2O)c(O)c1 [2,2′-Dihydroxy-4-methoxybenzophenone]	8.7	
Nc1ccncc1 [4-Aminopyridine]		5.817
CC1(C)OC(=O)NC1=O [5,5-Dimethyloxazolidine-2,4-dione]	0.163	
NCC(=O)CCC(=O)O [5-Aminolevulinic acid HCl]	7.12	
N[C@@H](Cc1c[nH]c2ccc(O)cc12)C(=O)O [5-hydroxytryptophan (5-HTP)]	0	
S=c1nc[nH]c2nc[nH]c12 [6-Mercaptopurine (6-MP) Monohydrate]	4.11	
Nc1c2ccccc2nc2ccccc12 [9-Aminoacridine]	0.915	
CC1(C)[C@@H]2CC[C@@]1(C)C(=O)C2 [(+)-Camphor]	0	
C/C=C1\[C@H]2C=C(C)C[C@]1(N)c1ccc(=O)[nH]c1C2 [(-)-Huperzine A (HupA)]	0	
CC(C)[C@@H]1CC[C@@H](C)C[C@H]1O [(-)-Menthol]	0	
CC(C)NC[C@@H](O)COc1ccc(CC(N)=O)cc1 [(R)-(+)-Atenolol HCl]	9.19	
NC[C@H](CC(=O)O)c1ccc(Cl)cc1 [(R)-baclofen]	0	
C[C@H](Oc1cc(-c2cnn(C3CCNCC3)c2)cnc1N)c1c(Cl)ccc(F)c1Cl [(S)-crizotinib]	4.9	
NC(=O)c1ncn([C@@H]2O[C@H](CO)[C@@H](O)[C@H]2O)c1N [AICAR (Acadesine)]	14.6	
Nc1nc(NC2CC2)c2ncn([C@H]3C=C[C@@H](CO)C3)c2n1 [Abacavir sulfate]	0	
CCN1CCN(Cc2ccc(Nc3ncc(F)c(-c4cc(F)c5nc(C)n(C(C)C)c5c4)n3)nc2)CC1 [Abemaciclib]	4.16	
CC#CC(=O)N1CCC[C@H]1c1nc(-c2ccc(C(=O)Nc3ccccn3)cc2)c2c(N)nccn12 [Acalabrutinib (ACP-196)]	9.75	

SMILES	inhibition at 100 µM [%]	%inhibition [%]
CC(=O)NCCCS(=O)(=O)O [Acamprosate Calcium]	0	
C[C@H]1O[C@H](O[C@H]2[C@H](O)[C@@H](O)[C@@H](O[C@H]3[C@H](O)[C@@H](O)C(O)O[C@@H]3CO)O[C@@H]2CO)[C@H](O)[C@@H](O)[C@@H]1N[C@H]1C=C(CO)[C@@H](O)[C@H](O)[C@H]1O (stereo partly drawn) [Acarbose]	16	
CCCC(=O)Nc1ccc(OCC(O)CNC(C)C)c(C(C)=O)c1 (stereo not drawn) [Acebutolol HCl]	0	
O=C(O)COC(=O)Cc1ccccc1Nc1c(Cl)cccc1Cl [Aceclofenac]	0	
CC(=O)N[C@@H](CCC(N)=O)C(=O)O [Aceglutamide]	0	
COc1ccc2c(c1)c(CC(=O)OCC(=O)O)c(C)n2C(=O)c1ccc(Cl)cc1 [Acemetacin]	8.64	
CC(=O)Nc1ccccc1 [Acetanilide]	30.4	
CC(=O)c1ccc(S(=O)(=O)NC(=O)NC2CCCCC2)cc1 [Acetohexamide]	17.8	
CC(=O)NO [Acetohydroxamic acid]	0	
CC(=O)OCC[N+](C)(C)C [Acetylcholine iodide]	0	
CC(=O)N[C@@H](CS)C(=O)O [Acetylcysteine]	0	
CC(=O)NC(CC(C)C)C(=O)O (stereo not drawn) [Acetylleucine]	1.78	
Nc1nc2c(ncn2COCCO)c(=O)[nH]1 [Aciclovir]	19.8	
Cc1cnc(C(=O)O)c[n+]1[O-] [Acipimox]	14	
COc1cc(C)c(/C=C/C(C)=C/C=C/C(C)=C/C(=O)O)c(C)c1C [Acitretin]	7.72	
O=C(O[C@H]1C[N+]2(CCCOc3ccccc3)CCC1CC2)C(O)(c1cccs1)c1cccs1 [Aclidinium Bromide]	0	
COc1cc(O)c(C(=O)Nc2nc(C(=O)NCCN(C(C)C)C(C)C)cs2)cc1OC [Acotiamide hydrochloride]		0
COc1cc(O)c(C(=O)Nc2nc(C(=O)NCCN(C(C)C)C(C)C)cs2)cc1OC [Acotiamide]		14.33
CC(=O)Nc1ccc(CC(=O)O)cc1 [Actarit]	2.1	
